# Values of other authors, collected in patent US9370632B2, “Nasal treatment delivery device for mixed carbon dioxide and saline” (CLOVER HILL HEALTHCARE, INC., priority 2012, dated 2016).
# Test system: subjects with SAR, nasal allergen challenge (grass or ragweed allergen)
smiles,measurement,setting,value
"O=C=O [CO(2), carbon dioxide]",ipsilateral secretion weights,"20-second exposure to CO(2) 30 minutes before allergen challenge, compared with no treatment",numerically reduced
same,sneezes,"20-second exposure to CO(2) 30 minutes before allergen challenge, compared with no treatment, 12 subjects with SAR, p=0.05",significant reduction
same,bilateral runny nose symptoms,"20-second exposure to CO(2) 30 minutes before allergen challenge, compared with no treatment, p=0.01",significant reduction
same,"contralateral secretion weights (reflex secretory response, primary outcome)","20-second exposure to CO(2) 30 minutes before allergen challenge, compared with no treatment, p=0.04",significant reduction
same,histamine levels in ipsilateral nasal secretions,"after pretreatment with CO(2), increased significantly with sham treatment",did not increase
same,sensation reported by subjects during exposure,during 20-second intranasal exposure to CO(2),transient burning sensation
